Patent US20230165831A1, “METHOD AND COMPOSITION FOR RENDERING CANCER CELLS SUSCEPTIBLE TO TREATMENT BY TARGETED ONCOGENETIC DRIVERS” (IMPACT BIOLIFE SCIENCE, INC., priority 2021, published 2023)
Read-outs that look alike come from different tables or passages of the source.

Assays:
[1] = system: kidney cancer line 786-O cells;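 further: luminescence read-out after adding CellTiter-Glo reagent, with cells incubated at 37 °C under 5% CO2 during compound exposure, part of a ten cell line synergy study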
[2] = system: prostate adenocarcinoma line LNCap cells; experiment: CTG (CellTiter-Glo) cell viability assay, 6×6 combo matrix, 72 h, LNCaP; conditions: Homo sapiens, LNCaP;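 further: luminescence signal read after adding CellTiter-Glo reagent, with cells exposed to compounds for 72 h at 37 °C under 5% CO2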
Protocol: (§1) To measure the cell inhibition effect of compounds and synergy effect of test articles on ten (10) cell lines using standard CTG assay.
(§2) 7) Using complete cell medium, adjust the volume of the suspension to achieve a cell concentration.
b. A549, T47D, SK-OV-3, MKN45, SK-Hep-1, HT-29, Capan-1, 786-O and LNCaP cell line, for compounds and vehicle groups, the seeding density of cell lines is 3000 cells/80 µL per well. For blank groups, add 100 µL medium. For PBS groups, add 100 µL PBS.
(§3) 8) Incubate the U87MG, A549, T47D, SK-OV-3, MKN45, SK-Hep-1, HT-29, Capan-1, 786-O and LNCaP cells overnight at 37° C./5% CO2.
(§4) Solid compound of cis-platinum was solubilized in PBS to a stock solution of 3.333 mM.
(§5) Final volume is 100 µL per well at this point.
(§6) 5) Incubate the plates at 37° C./5% CO2 for 72 hours.
(§7) 1) Incubate the plates at room temperature and away from light for 30 minutes.
(§8) 3) Add 100 µL /well of CellTiter-Glo® Reagent in each well. Avoid light.
(§9) 4) Mix contents for 2 minutes on an orbital shaker.
(§10) 5) Incubate plate at room temperature for 10 minutes to stabilize the luminescent signal.
6) Read plates in Envision.

[3] = system: glioblastoma line U87MG cells;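 further: U87MG cells seeded at 2000 per well, exposed 72 h, viability read by CellTiter-Glo luminescence, inhibition expressed relative to vehicle-treated wells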
[4] = system: lung adenocarcinoma line A549 cells;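 further: luminescent ATP readout with CellTiter-Glo after compound exposure, used to assess growth inhibition and combination synergy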
Protocol: as §1, §2
(§11) A549, T47D, SK-OV-3, MKN45, SK-Hep-1, HT-29, Capan-1, 786-O and LNCaP cell line, for compounds and vehicle groups, the seeding density of cell lines is 3000 cells/80 µL per well. For blank groups, add 100 µL medium. For PBS groups, add 100 µL PBS.
as §3, §4, §5, §6, §7, §8, §9, §10
6) Read plates in Envision.

[5] = system: gastric cancer line MKN45 cells;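 further: MKN45 cell viability read as CellTiter-Glo luminescence after 72 h culture at 37 °C under 5% CO2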
Protocol: as §1, §2, §11, §3, §4, §5, §6, §7, §8, §9, §10
6) Read plates in Envision.

`COc1cccc2c1C(=O)c1c(O)c3c(c(O)c1C2=O)C[C@@](O)(C(=O)CO)C[C@@H]3O[C@H]1C[C@H](N)[C@H](O)[C@H](C)O1` [doxorubicin] showed an inhibition [1] of 3.98%, an inhibition at […] ([2]; read-out: Relatively Cell inhibition of vehicle control(%), doxorubicin 16 nM only (myricetin plate)) of 2.69% and an inhibition at 0.08 µM ([2]; read-out: Relatively Cell inhibition of vehicle control(%), doxorubicin 80 nM only (LB-1 plate)) of 29.9%. For the same compound, the inhibition at 0.08 µM ([2]; read-out: Relatively Cell inhibition of vehicle control(%), doxorubicin 80 nM only (myricetin plate)) was 31.7%, the inhibition at 0.4 µM ([2]; read-out: Relatively Cell inhibition of vehicle control(%), doxorubicin 400 nM only (LB-1 plate)) was 65.2% and the inhibition at 0.4 µM ([2]; read-out: Relatively Cell inhibition of vehicle control(%), doxorubicin 400 nM only (myricetin plate)) was 67.3%. For the same compound, the inhibition at 2 µM ([2]; read-out: Relatively Cell inhibition of vehicle control(%), doxorubicin 2000 nM only (LB-1 plate)) was 97.2%, the inhibition at 2 µM ([2]; read-out: Relatively Cell inhibition of vehicle control(%), doxorubicin 2000 nM only (myricetin plate)) was 97% and the inhibition at 10 µM ([2]; read-out: Relatively Cell inhibition of vehicle control(%), doxorubicin 10000 nM only (LB-1 plate)) was 87.8%. It also gave an inhibition at 10 µM ([2]; read-out: Relatively Cell inhibition of vehicle control(%), doxorubicin 10000 nM only (myricetin plate)) of 88.9% and an inhibition [3] of 27.5%.
In the case of `O=c1c(O)c(-c2cc(O)c(O)c(O)c2)oc2cc(O)cc(O)c12` [myricetin], the inhibition at 0.8 µM ([2]; read-out: Relatively Cell inhibition of vehicle control(%), myricetin 0.8 µM only (cisplatin plate)) is reported as -1.65%, the inhibition at 0.8 µM ([2]; read-out: Relatively Cell inhibition of vehicle control(%), myricetin 0.8 µM only (doxorubicin plate)) is reported as -0.32% and the inhibition at 0.8 µM ([2]; read-out: Relatively Cell inhibition of vehicle control(%), myricetin 0.8 µM only (taxol plate)) is reported as -2.06%. For the same compound, the inhibition at 0.8 µM ([2]; read-out: Relatively Cell inhibition of vehicle control(%), myricetin 0.8 µM only (topotecan plate)) was -2.79%, the inhibition at 4 µM ([2]; read-out: Relatively Cell inhibition of vehicle control(%), myricetin 4 µM only (cisplatin plate)) was 0.26% and the inhibition at 4 µM ([2]; read-out: Relatively Cell inhibition of vehicle control(%), myricetin 4 µM only (doxorubicin plate)) was -3.26%. It also gave an inhibition at 4 µM ([2]; read-out: Relatively Cell inhibition of vehicle control(%), myricetin 4 µM only (taxol plate)) of -5.5%, an inhibition at 4 µM ([2]; read-out: Relatively Cell inhibition of vehicle control(%), myricetin 4 µM only (topotecan plate)) of 8.5% and an inhibition at 20 µM ([2]; read-out: Relatively Cell inhibition of vehicle control(%), myricetin 20 µM only (cisplatin plate)) of -3.11%. The inhibition at 20 µM ([2]; read-out: Relatively Cell inhibition of vehicle control(%), myricetin 20 µM only (doxorubicin plate)) was -2.66%, the inhibition at 20 µM ([2]; read-out: Relatively Cell inhibition of vehicle control(%), myricetin 20 µM only (taxol plate)) was 4.8% and the inhibition at 20 µM ([2]; read-out: Relatively Cell inhibition of vehicle control(%), myricetin 20 µM only (topotecan plate)) was 6.5%. For the same compound, the inhibition at 100 µM ([2]; read-out: Relatively Cell inhibition of vehicle control(%), myricetin 100 µM only (cisplatin plate)) was 27.2%, the inhibition at 100 µM ([2]; read-out: Relatively Cell inhibition of vehicle control(%), myricetin 100 µM only (doxorubicin plate)) was 21.1% and the inhibition at 100 µM ([2]; read-out: Relatively Cell inhibition of vehicle control(%), myricetin 100 µM only (taxol plate)) was 31.4%. It also gave an inhibition at 100 µM ([2]; read-out: Relatively Cell inhibition of vehicle control(%), myricetin 100 µM only (topotecan plate)) of 30.1%.
`CC(=O)O[C@H]1C(=O)[C@@]2(C)[C@H]([C@H](OC(=O)c3ccccc3)[C@]3(O)C[C@H](OC(=O)[C@H](O)[C@@H](NC(=O)c4ccccc4)c4ccccc4)C(C)=C1C3(C)C)[C@]1(OC(C)=O)CO[C@@H]1C[C@@H]2O` [taxol, paclitaxel] showed an inhibition [1] of 3.15%, an inhibition [4] of 13.7% and an inhibition [5] of 35.1%. It also gave an inhibition at 0.008 µM ([2]; read-out: Relatively Cell inhibition of vehicle control(%), taxol 8 nM only (LB-1 plate)) of 54%, an inhibition at 0.008 µM ([2]; read-out: Relatively Cell inhibition of vehicle control(%), taxol 8 nM only (myricetin plate)) of 62.6% and an inhibition at 0.04 µM ([2]; read-out: Relatively Cell inhibition of vehicle control(%), taxol 40 nM only (LB-1 plate)) of 59.2%. For the same compound, the inhibition at 0.04 µM ([2]; read-out: Relatively Cell inhibition of vehicle control(%), taxol 40 nM only (myricetin plate)) was 65.5%, the inhibition at 0.2 µM ([2]; read-out: Relatively Cell inhibition of vehicle control(%), taxol 200 nM only (LB-1 plate)) was 56.4% and the inhibition at 0.2 µM ([2]; read-out: Relatively Cell inhibition of vehicle control(%), taxol 200 nM only (myricetin plate)) was 62.2%. The inhibition at 1 µM ([2]; read-out: Relatively Cell inhibition of vehicle control(%), taxol 1000 nM only (LB-1 plate)) was 48.8%, the inhibition at 1 µM ([2]; read-out: Relatively Cell inhibition of vehicle control(%), taxol 1000 nM only (myricetin plate)) was 55.6% and the inhibition [3] was 5.92%.
In the case of `CC[C@@]1(O)C(=O)OCc2c1cc1n(c2=O)Cc2cc3c(CN(C)C)c(O)ccc3nc2-1` [topotecan], the inhibition [1] is reported as 2.61%, the inhibition [5] is reported as 14.9% and the inhibition at […] ([2]; read-out: Relatively Cell inhibition of vehicle control(%), topotecan 16 nM only (myricetin plate)) is reported as 17.6%. The inhibition at 0.08 µM ([2]; read-out: Relatively Cell inhibition of vehicle control(%), topotecan 80 nM only (LB-1 plate)) was 37.8%, the inhibition at 0.08 µM ([2]; read-out: Relatively Cell inhibition of vehicle control(%), topotecan 80 nM only (myricetin plate)) was 40.1% and the inhibition at 0.4 µM ([2]; read-out: Relatively Cell inhibition of vehicle control(%), topotecan 400 nM only (LB-1 plate)) was 55.9%. For the same compound, the inhibition at 0.4 µM ([2]; read-out: Relatively Cell inhibition of vehicle control(%), topotecan 400 nM only (myricetin plate)) was 60%, the inhibition at 2 µM ([2]; read-out: Relatively Cell inhibition of vehicle control(%), topotecan 2000 nM only (LB-1 plate)) was 82.1% and the inhibition at 2 µM ([2]; read-out: Relatively Cell inhibition of vehicle control(%), topotecan 2000 nM only (myricetin plate)) was 83.6%. The inhibition at 10 µM ([2]; read-out: Relatively Cell inhibition of vehicle control(%), topotecan 10000 nM only (LB-1 plate)) was 84.8% and the inhibition at 10 µM ([2]; read-out: Relatively Cell inhibition of vehicle control(%), topotecan 10000 nM only (myricetin plate)) was 87.5%.
